The results in this text go back to patent US6995185B2, “Δ1-pyrrolines used as pesticides” (Bayer Cropscience AG, priority 2000, dated 2006).

System in one data set: not listed separately
In words: log P determination by HPLC on reversed-phase column (C 18), EEC directive 79/831 Annex V.A8. Type of data set: physicochemical. As to conditions: pH 2.3 (marked a), 0.1% aqueous phosphoric acid/acetonitrile, 43° C. As to the method: The log P values given in the tables and Preparation Examples above are determined in accordance with EEC directive 79/831 Annex V.A8 by HPLC (High Performance Liquid Chromatography) using a reversed-phase column (C 18). Temperature: 43° C. In the acidic range, the determination is carried out at pH 2.3 using the mobile phases 0.1% aqueous phosphoric acid and acetonitrile; linear gradient from 10% acetonitrile to 90% acetonitrile (marked^a) in the table). In the neutral range, the determination is carried out at pH 7.5 using the mobile phases 0.01-molar aqueous phosphate buffer solution and acetonitrile; linear gradient from 10% acetonitrile to 90% acetonitrile (marked^b) in the table). Calibration is carried out using unbranched alkan-2-ones (having 3 to 16 carbon atoms) with known log P values (determination of the log P values by the retention times using linear interpolation between two successive alkanones).
For the molecule `CC1CCC(OC(=O)[C@H]2CC(c3c(F)cccc3F)=NC2c2ccc(-c3ccc(OC(F)(F)F)cc3)cc2)CC1` (stereo partly shown) [Example 49], the “log P” value is listed as 6.28^a).

The same data set, now with this note: reversed-phase HPLC column (C 18), pH 2.3, pH 2.3 (marked a), 0.1% aqueous phosphoric acid/acetonitrile, 43° C.
For orientation: chromatographic logP means a lipophilicity value derived from retention on a column. Low readings indicate a more hydrophilic compound, high ones a more lipophilic compound. `O=C(OCc1ccccc1)[C@H]1CC(c2c(F)cccc2F)=NC1c1ccc(-c2ccc(OC(F)(F)F)cc2)cc1` (stereo partly shown) [Example 34] came in with a chromatographic logP of 5.31. For `O=C(OCCCN1CCCC1=O)[C@H]1CC(c2c(F)cccc2F)=NC1c1ccc(-c2ccc(OC(F)(F)F)cc2)cc1` (stereo partly shown) [Example 45], the chromatographic logP worked out at 3.72. Consider `CCNC(=O)[C@H]1CC(c2c(F)cccc2F)=NC1c1ccc(-c2ccc(OC(F)(F)F)cc2)cc1` (stereo partly shown) [Example 59], for which the chromatographic logP is 3.49. On to `N#CCCOC(=O)[C@H]1CC(c2c(F)cccc2F)=NC1c1ccc(-c2ccc(OC(F)(F)F)cc2)cc1` (stereo partly shown) [Example 25], for which the chromatographic logP stood at 4.08. On the same count and under the same terms, to `O=C(NCc1ccccc1)[C@H]1CC(c2c(F)cccc2F)=NC1c1ccc(-c2ccc(OC(F)(F)F)cc2)cc1` (stereo partly shown) [Example 78] belongs 3.94. Regarding `O=C(Nc1nccs1)[C@H]1CC(c2c(F)cccc2F)=NC1c1ccc(-c2ccc(OC(F)(F)F)cc2)cc1` (stereo partly shown) [Example 87], the chromatographic logP was found to be 3.78. The molecule `COCCOC(=O)[C@H]1CC(c2c(F)cccc2F)=NC1c1ccc(-c2ccc(OC(F)(F)F)cc2)cc1` (stereo partly shown) [Example 24] returned a chromatographic logP of 4.37. The same measure, in the same setting: then `CCCCCN(C)C(=O)[C@H]1CC(c2c(F)cccc2F)=NC1c1ccc(-c2ccc(OC(F)(F)F)cc2)cc1` (stereo partly shown) [Example 71], with 4.92; and `O=C(NCC1CCCO1)[C@H]1CC(c2c(F)cccc2F)=NC1c1ccc(-c2ccc(OC(F)(F)F)cc2)cc1` (stereo partly shown) [Example 83], with 3.48. In turn, `CCCNC(=O)[C@H]1CC(c2c(F)cccc2F)=NC1c1ccc(-c2ccc(OC(F)(F)F)cc2)cc1` (stereo partly shown) [Example 60] showed a chromatographic logP of 3.78. The molecule `O=C(OC1CCCc2ccccc21)[C@H]1CC(c2c(F)cccc2F)=NC1c1ccc(-c2ccc(OC(F)(F)F)cc2)cc1` (stereo partly shown) [Example 51] had a chromatographic logP of 5.97.

Turning to `CC(C)NC(=O)[C@H]1CC(c2c(F)cccc2F)=NC1c1ccc(-c2ccc(OC(F)(F)F)cc2)cc1` (stereo partly shown) [Example 64], the chromatographic logP was 3.74. Still for that read-out and setting: then `COc1cccc(CNC(=O)[C@H]2CC(c3c(F)cccc3F)=NC2c2ccc(-c3ccc(OC(F)(F)F)cc3)cc2)c1OC` (stereo partly shown) [Example 95], with 4.03; and `CCCCCNC(=O)[C@H]1CC(c2c(F)cccc2F)=NC1c1ccc(-c2ccc(OC(F)(F)F)cc2)cc1` (stereo partly shown) [Example 62], with 4.37.

`CN(C)C(=O)[C@H]1CC(c2c(F)cccc2F)=NC1c1ccc(-c2ccc(OC(F)(F)F)cc2)cc1` (stereo partly shown) [Example 67] registered a chromatographic logP of 3.61. Regarding `O=C(NCc1ccc(Cl)cc1)[C@H]1CC(c2c(F)cccc2F)=NC1c1ccc(-c2ccc(OC(F)(F)F)cc2)cc1` (stereo partly shown) [Example 81], the chromatographic logP was determined as 4.41.

`CCCN(C)C(=O)[C@H]1CC(c2c(F)cccc2F)=NC1c1ccc(-c2ccc(OC(F)(F)F)cc2)cc1` (stereo partly shown) [Example 69] had a chromatographic logP of 4.23.

`O=C(OC1CCCC1)[C@H]1CC(c2c(F)cccc2F)=NC1c1ccc(-c2ccc(OC(F)(F)F)cc2)cc1` (stereo partly shown) [Example 18]: the chromatographic logP turned out to be 5.47.

Molecule `CCCCCCNC(=O)[C@H]1CC(c2c(F)cccc2F)=NC1c1ccc(-c2ccc(OC(F)(F)F)cc2)cc1` (stereo partly shown) [Example 63] showed a chromatographic logP of 4.67. `O=C(NCc1ccc(Cl)cc1Cl)[C@H]1CC(c2c(F)cccc2F)=NC1c1ccc(-c2ccc(OC(F)(F)F)cc2)cc1` (stereo partly shown) [Example 93] gave a chromatographic logP of 4.87. `Cc1ccc(CNC(=O)[C@H]2CC(c3c(F)cccc3F)=NC2c2ccc(-c3ccc(OC(F)(F)F)cc3)cc2)cc1` (stereo partly shown) [Example 91] yielded a chromatographic logP of 4.37. `O=C(OCc1ccoc1)[C@H]1CC(c2c(F)cccc2F)=NC1c1ccc(-c2ccc(OC(F)(F)F)cc2)cc1` (stereo partly shown) [Example 28]: the chromatographic logP was 4.87.

For `O=C(OCc1cccs1)[C@H]1CC(c2c(F)cccc2F)=NC1c1ccc(-c2ccc(OC(F)(F)F)cc2)cc1` (stereo partly shown) [Example 43], the chromatographic logP came to 5.19. `CCOC(=O)[C@H]1CC(c2c(F)cccc2F)=NC1c1ccc(-c2ccc(OC(F)(F)F)cc2)cc1` (stereo partly shown) [Example 10]: the chromatographic logP turned out to be 4.73. `O=C([C@H]1CC(c2c(F)cccc2F)=NC1c1ccc(-c2ccc(OC(F)(F)F)cc2)cc1)N1CCCCC1` (stereo partly shown) [Example 77]: the chromatographic logP came out at 4.32.

Consider `CC(C)[C@@H](C)OC(=O)[C@H]1CC(c2c(F)cccc2F)=NC1c1ccc(-c2ccc(OC(F)(F)F)cc2)cc1` (stereo partly shown) [Example 56], for which the chromatographic logP stood at 5.65. The molecule `O=C(NCC1CCCCC1)[C@H]1CC(c2c(F)cccc2F)=NC1c1ccc(-c2ccc(OC(F)(F)F)cc2)cc1` (stereo partly shown) [Example 82] had a chromatographic logP of 4.67. For `C=C(C)CCOC(=O)[C@H]1CC(c2c(F)cccc2F)=NC1c1ccc(-c2ccc(OC(F)(F)F)cc2)cc1` (stereo partly shown) [Example 27], the chromatographic logP stood at 5.48. Turning to `O=C(NCC(F)(F)F)[C@H]1CC(c2c(F)cccc2F)=NC1c1ccc(-c2ccc(OC(F)(F)F)cc2)cc1` (stereo partly shown) [Example 86], the chromatographic logP amounted to 3.94.

`O=C(OC/C=C/c1ccccc1)[C@H]1CC(c2c(F)cccc2F)=NC1c1ccc(-c2ccc(OC(F)(F)F)cc2)cc1` (stereo partly shown) [Example 31] registered a chromatographic logP of 5.55. `CCN(C)C(=O)[C@H]1CC(c2c(F)cccc2F)=NC1c1ccc(-c2ccc(OC(F)(F)F)cc2)cc1` (stereo partly shown) [Example 68] registered a chromatographic logP of 3.9. The same measure, in the same setting: then `COCCNC(=O)[C@H]1CC(c2c(F)cccc2F)=NC1c1ccc(-c2ccc(OC(F)(F)F)cc2)cc1` (stereo partly shown) [Example 84], with 3.33. As for `CCCN(CCC)C(=O)[C@H]1CC(c2c(F)cccc2F)=NC1c1ccc(-c2ccc(OC(F)(F)F)cc2)cc1` (stereo partly shown) [Example 73], the chromatographic logP came to 4.92. `CC(C)[C@H](C)OC(=O)[C@H]1CC(c2c(F)cccc2F)=NC1c1ccc(-c2ccc(OC(F)(F)F)cc2)cc1` (stereo partly shown) [Example 55] gave a chromatographic logP of 5.74. In the case of `C=CCCCOC(=O)[C@H]1CC(c2c(F)cccc2F)=NC1c1ccc(-c2ccc(OC(F)(F)F)cc2)cc1` (stereo partly shown) [Example 26], the chromatographic logP was 5.48. Still for that read-out and setting: then `Cc1cccc(CNC(=O)[C@H]2CC(c3c(F)cccc3F)=NC2c2ccc(-c3ccc(OC(F)(F)F)cc3)cc2)c1` (stereo partly shown) [Example 98], with 4.41; and `O=C(NC1CCCCC1)[C@H]1CC(c2c(F)cccc2F)=NC1c1ccc(-c2ccc(OC(F)(F)F)cc2)cc1` (stereo partly shown) [Example 66], with 4.37. `O=C(OCc1ccccc1Cl)[C@H]1CC(c2c(F)cccc2F)=NC1c1ccc(-c2ccc(OC(F)(F)F)cc2)cc1` (stereo partly shown) [Example 35] registered a chromatographic logP of 5.65. `O=C(OC1CCCCC1)[C@H]1CC(c2c(F)cccc2F)=NC1c1ccc(-c2ccc(OC(F)(F)F)cc2)cc1` (stereo partly shown) [Example 19] showed a chromatographic logP of 5.85. The same measure, in the same setting: to `O=C(NCc1ccccc1Cl)[C@H]1CC(c2c(F)cccc2F)=NC1c1ccc(-c2ccc(OC(F)(F)F)cc2)cc1` (stereo partly shown) [Example 79] belongs 4.46. On the same count and under the same terms, to `O=C(NC1CCC(C(F)(F)F)CC1)[C@H]1CC(c2c(F)cccc2F)=NC1c1ccc(-c2ccc(OC(F)(F)F)cc2)cc1` (stereo partly shown) [Example 89] belongs 4.46; to `O=C(OC1CCc2ccccc21)[C@H]1CC(c2c(F)cccc2F)=NC1c1ccc(-c2ccc(OC(F)(F)F)cc2)cc1` (stereo partly shown) [Example 52], 5.71. Consider `N#CCOC(=O)[C@H]1CC(c2c(F)cccc2F)=NC1c1ccc(-c2ccc(OC(F)(F)F)cc2)cc1` (stereo partly shown) [Example 29], for which the chromatographic logP was 4.23. `O=C(OCc1cccc(Cl)c1)[C@H]1CC(c2c(F)cccc2F)=NC1c1ccc(-c2ccc(OC(F)(F)F)cc2)cc1` (stereo partly shown) [Example 36] yielded a chromatographic logP of 5.58. In the case of `CCC(CC)OC(=O)[C@H]1CC(c2c(F)cccc2F)=NC1c1ccc(-c2ccc(OC(F)(F)F)cc2)cc1` (stereo partly shown) [Example 23], the chromatographic logP is 5.78.

Staying with this data set, now noted: reversed-phase HPLC column (C 18), pH 7.5, pH 7.5 (marked b), 0.01-molar aqueous phosphate buffer/acetonitrile, 43° C.
Turning to `O=C(OC1CCCC1)[C@H]1CC(c2c(F)cccc2F)=NC1c1ccc(-c2ccc(OC(F)(F)F)cc2)cc1` (stereo partly shown) [Example 18], the chromatographic logP amounted to 5.54.

For the molecule `CC(C)[C@@H](C)OC(=O)[C@H]1CC(c2c(F)cccc2F)=NC1c1ccc(-c2ccc(OC(F)(F)F)cc2)cc1` (stereo partly shown) [Example 56], the chromatographic logP was 5.86.

Take `CC(C)[C@H](C)OC(=O)[C@H]1CC(c2c(F)cccc2F)=NC1c1ccc(-c2ccc(OC(F)(F)F)cc2)cc1` (stereo partly shown) [Example 55]: the chromatographic logP amounted to 5.77. `O=C(OC1CCCCC1)[C@H]1CC(c2c(F)cccc2F)=NC1c1ccc(-c2ccc(OC(F)(F)F)cc2)cc1` (stereo partly shown) [Example 19] had a chromatographic logP of 5.91.

The subject of another data set is caterpillars of the army worm (Spodoptera frugiperda). The data set can be described thus: Spodoptera frugiperda test. Format: in vivo. As to conditions: 1000 ppm, cabbage leaves (Brassica oleracea) dipped. How it is done:
Spodoptera frugiperda Test • Solvent: 30 parts by weight of dimethylformamide • Emulsifier: 1 part by weight of alkylaryl polyglycol ether To produce a suitable preparation of active compound, 1 part by weight of active compound is mixed with the stated amounts of solvent and emulsifier, and the concentrate is diluted with emulsifier-containing water to the desired concentration. Cabbage leaves (Brassica oleracea) are treated by being dipped into the preparation of active compound of the desired concentration and are populated with caterpillars of the army worm (Spodoptera frugiperda) while the leaves are still moist. After the desired period of time, the kill in % is determined. 100% means that all caterpillars have been killed; 0% means that none of the caterpillars have been killed.
Turning to `COC(=O)C1CC(c2ccccc2Cl)=NC1c1ccc(-c2ccc(OC(F)(F)F)cc2)cc1` (stereo not shown) [drawing 152], the “Kill rate in % after 7 days” value was found to be 100%. With `N#CC1CC(c2ccccc2Cl)=NC1c1ccc(-c2ccc(OC(F)(F)F)cc2)cc1` (stereo not shown), the “Kill rate in % after 7 days” value was 100%. For the molecule `COC(=O)C1CC(c2c(F)cccc2F)=NC1c1ccc(-c2ccc(OC(F)(F)F)cc2)cc1` (stereo not shown) [drawing 151], the “Kill rate in % after 7 days” value was found to be 100%. For the molecule `N#CC1CC(c2c(F)cccc2F)=NC1c1ccc(-c2ccc(OC(F)(F)F)cc2)cc1` (stereo not shown) [drawing 154], the “Kill rate in % after 7 days” value was 100%.

`CC(C)c1ccc(-c2ccc(C3N=C(c4ccccc4Cl)CC3C#N)cc2)cc1` (stereo not shown): the “Kill rate in % after 7 days” value turned out to be 100%.
